{"source": "patent US8173767B2", "about": "“Synthetic peptide vaccines for HIV: the CBD epitope as an effective immunogen to elicit broadly neutralizing antibodies against HIV” (Institut Pasteur, priority 2003, dated 2012)", "key": {"[1]": {"test_system": "rabbits (Fauves de Bourgogne)", "assay": "ELISA of sera from rabbit immunized with the C-20 peptide (plates coated with C-20)", "type": "in vivo", "settings": "rabbit Hermione; after the first 2 injections; serum dilution 1/2000", "method": "A biotinylated C-20 peptide was synthesized as in Example 2. After synthesis the biotinylated C-20 peptide was solubilized in water containing 10% DMSO at a concentration of 2 mg/ml. 100 μg of this solution (corresponding to 50 μl) was mixed with 50 μg of streptavidin in 250 μl distilled water. This solution was then mixed with 250 μl of adjuvant; complete Freund's adjuvant (CFA) for the first injection and incomplete Freund's adjuvant (IFA) for the following injections. Rabbits (Fauves de Bourgogne) were injected intramuscularly with 500 μl of the antigen/adjuvant mixture. 10 ml of blood was collected from the rabbits before the first injection of antigen. This serum is referred to as S0 or pre-immune serum.\nAll sera were tested by ELISA using 2 types of plates (PVC and Maxisorp) coated with the C-20 peptide."}, "[2]": {"test_system": "rabbits (Fauves de Bourgogne)", "assay": "ELISA of sera from rabbit immunized with the CBD-1 peptide (plates coated with CBD-1)", "type": "in vivo", "method": "The biotinylated CBD-1 peptide was solubilized in water containing 10% DMSO at a concentration of 2 mg/ml. 100 μg of this solution (50 μl) was mixed with 50 μg of streptavidin in 250 μl of distilled water. This solution was then mixed with 250 μl of complete Freund's adjuvant (CFA) for the first injection and incomplete Freund's adjuvant (IFA) for the following injections. 10 ml of blood was collected from the rabbits before the first injection of antigen; this serum was referred to as S0 or pre-immune serum.\nThe rabbits (Fauves de Bourgogne) were injected intramuscularly with 500 μl of the antigen/adjuvant mixture. The following Table 1 presents the injection and bleeding dates of the rabbit named “Aldernay”:\nAll sera were tested by ELISA using 2 types of plates (PVC and Maxisorp) coated with the CBD-1 peptide. The optical density (OD) was measured at 450 nm. An OD value above 0.20 was considered positive."}, "[3]": {"test_system": "HeLa cells", "assay": "Entry of the CBD-1 peptide into cells (confocal immunofluorescence microscopy)", "type": "cell-based", "method": "(§1) Several studies in laser scanning confocal immunofluorescence microscopy were conducted to investigate the interaction of the CBD-1 peptide with cells and its effect on Midkine. […] Midkine binds its low affinity receptor, surface-expressed nucleolin, before entry into cells by an active process in which lipid rafts appear to be implicated (34).\nOn intact cells, the CBD-1 peptide appeared to interact with caveolin at the plasma membrane.\nHeLa cells in culture medium were incubated (45 min at 37° C.) with the biotinylated CBD-1 peptide (5 μM). Cells were then washed and fixed with paraformaldehyde/Triton X-100 solution. […] The secondary antibody was Texas Red dye-conjugated donkey anti-rabbit IgG (Jackson ImmunoResearch Laboratories, PA). Confocal microscopy was performed as described previously (6)."}, "[4]": {"test_system": "Midkine", "assay": "Effect of the CBD-1 peptide on Midkine binding and entry into cells (confocal microscopy)", "type": "cell-based", "method": "as §1"}, "[5]": {"target": "T1, caveolin (Homo sapiens, UniProt Q03135)", "T1 construct": "endogenous in cells", "T1 sequence (Q03135 1-178)": "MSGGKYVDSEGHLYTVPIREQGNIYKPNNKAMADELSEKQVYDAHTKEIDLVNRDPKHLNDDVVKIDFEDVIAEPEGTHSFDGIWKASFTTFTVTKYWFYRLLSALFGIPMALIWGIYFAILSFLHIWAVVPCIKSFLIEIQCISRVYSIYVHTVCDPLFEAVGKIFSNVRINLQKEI", "assay": "Binding of biotinylated CBD-1 to caveolin in crude MT4 cell extracts (avidine-sepharose, immunoblot)", "method": "MT4 cells were extracted in buffer containing 10 mM Hepes, pH 7.6, 50 mM KCl, 400 mM NaCl, 1 mM EDTA, protease inhibitor cocktail and 1% Triton X-100®. Extracts were centrifuged at 12,000×g and the supernatants were stored at […]. 100 μl of cell extracts were first diluted with 400 μl of homogenization buffer and left at 4° C. for 10 minutes before centrifuging at 12,000×g.\nThe diluted supernatants were then incubated at 4° C. in the presence of 0, 2, 5, 10 and 20 μM of the biotinylated CBD-1 peptide. After 90 minutes, 100 μl of avidine-sepharose were added in each sample and the samples were further incubated at 4° C. for 2 hours with gentle shaking. The samples were then washed extensively with PBS and proteins bound to avidine-sepharose were eluted in 100 μl of electrophoresis sample buffer containing SDS and analyzed by SDS-PAGE (using a 12.5% polyacrylamide gel) for immunoblotting with rabbit anti-caveolin 1 antibodies ([…]) as previously described (6).\nCell extracts were first incubated with 50 μM of CBD-1 (+) or without CBD-1 (−) before the addition of 10 μM biotinylated CBD-1 and further processed as above. Lane E represents the analysis of crude cell extracts diluted 1-fold in the electrophoresis sample buffer. […]"}}, "note": "Ends that are not written are not given here. * marks the point of attachment. Biotin = O=C1N[C@H]2[C@H](CS[C@H]2CCCCC(=O)*)N1"}
{"substance": "DGIWKASFTTFTVTKYWFYR (DGIWKASFTTFTVTKYWFYR) [C-20 peptide]", "values": [{"measurement": "antibodies against C-20 in serum (ELISA)", "setting": "[1]", "value": "significant amount of antibodies against C-20"}]}
{"substance": "L-E-Q-I-W-N-N-M-T-W-M-Q-W-D-K (LEQIWNNMTWMQWDK) [CBD-1 peptide]", "values": [{"measurement": "antibodies against CBD-1 in serum (ELISA)", "setting": "[2]; after the first 3 injections, serum dilution 1/2,000", "value": "significant amount of antibodies against CBD-1"}, {"measurement": "immunogenicity of the peptide (anti-CBD-1 antibodies in serum, ELISA)", "setting": "[2]; rabbit Aldernay, intramuscular, biotinylated peptide with streptavidin in CFA/IFA, OD 450 nm above 0.20 positive", "value": "immunogenic"}, {"measurement": "entry of the peptide into cells", "setting": "[3]; dependence on incubation temperature", "value": "occurred at 37 °C but not at 20 °C"}, {"measurement": "Midkine binding to cells", "setting": "[4]", "value": "without affecting Midkine binding to cells"}, {"measurement": "entry of Midkine into cells", "setting": "[4]", "value": "blocks entry of Midkine into cells"}]}
{"substance": "biotinylated CBD-1: CBD-1 peptide with a biotinyl moiety coupled at the N terminus (Biotin-LEQIWNNMTWMQWDK)", "values": [{"measurement": "caveolin purified from crude extracts with the biotinylated peptide", "setting": "[5]; 0, 2, 5, 10 and 20 μM biotinylated CBD-1, 4° C.", "value": "in a dose dependent manner"}, {"measurement": "capacity to bind caveolin in the presence of excess CBD-1", "setting": "[5]; 50 μM CBD-1 before 10 μM biotinylated CBD-1", "value": "reduced capacity"}, {"measurement": "localization of the peptide in cells", "setting": "[3]; HeLa cells, 5 μM, 45 min at 37° C.", "value": "localized in the cytoplasm"}]}
